Test system: 935938-334-R-J1-PDC complex spheroid viability
Assay: Anticancer human tumor 935938-334-R-J1-PDC patient-derived small intestine adenocarcinoma cell line growth inhibition [POLQ]
Details: for IC50: curve of first compound; for viability, T/C: stronger effect = lower value
Procedure, shortened: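 Patient-derived tumour cells were co-cultured with HUVEC and mesenchymal stem cells as multicellular spheroids at 37 °C. They were treated with POLQ inhibitors (novobiocin, ART-558, RP6685) alone or combined with other agents. Top concentrations were at or near clinical Cmax (otherwise 10 microM; SN-38 at 1 microM), decreasing in half-log steps.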

[1] = second compound 0.0316 µM, first compound 0.0316 µM
[2] = second compound 0.0316 µM, first compound 0.1 µM
[3] = second compound 0.0316 µM, first compound 0.316 µM
[4] = second compound 0.0316 µM, first compound 1 µM
[5] = second compound 0.0316 µM, first compound 3.16 µM
[6] = second compound 0.0316 µM, first compound 10 µM
[7] = second compound 0.1 µM, first compound 0.0316 µM
[8] = second compound 0.1 µM, first compound 0.1 µM
[9] = second compound 0.1 µM, first compound 0.316 µM
[10] = second compound 0.1 µM, first compound 1 µM
[11] = second compound 0.1 µM, first compound 3.16 µM
[12] = second compound 0.1 µM, first compound 10 µM
[13] = second compound 0.316 µM, first compound 0.0316 µM
[14] = second compound 0.316 µM, first compound 0.1 µM
[15] = second compound 0.316 µM, first compound 0.316 µM
[16] = second compound 0.316 µM, first compound 1 µM
[17] = second compound 0.316 µM, first compound 3.16 µM
[18] = second compound 0.316 µM, first compound 10 µM
[19] = second compound 1 µM, first compound 0.0316 µM
[20] = second compound 1 µM, first compound 0.1 µM
[21] = second compound 1 µM, first compound 0.316 µM
[22] = second compound 1 µM, first compound 1 µM
[23] = second compound 1 µM, first compound 3.16 µM
[24] = second compound 1 µM, first compound 10 µM
[25] = second compound 3.16 µM, first compound 0.0316 µM
[26] = second compound 3.16 µM, first compound 0.1 µM
[27] = second compound 3.16 µM, first compound 0.316 µM
[28] = second compound 3.16 µM, first compound 1 µM
[29] = second compound 3.16 µM, first compound 3.16 µM
[30] = second compound 3.16 µM, first compound 10 µM
[31] = second compound 10 µM, first compound 0.0316 µM
[32] = second compound 10 µM, first compound 0.1 µM
[33] = second compound 10 µM, first compound 0.316 µM
[34] = second compound 10 µM, first compound 1 µM
[35] = second compound 10 µM, first compound 3.16 µM
[36] = second compound 10 µM, first compound 10 µM
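Also: spheroids exposed to drugs for seven days before viability read.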
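For viability, T/C in this document: 100% = DMSO vehicle control wells.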

CC1COCCN1c1cc(-c2ccnn2C)c2ccnc(-c3ccn[nH]3)c2n1 (stereo not drawn) + Cc1cccc(N(C)C(=O)C2C(O)CCN2c2nc(C)cc(C(F)(F)F)c2C#N)c1
IC50 (second compound 0.0316 µM): 108 nM | IC50 (second compound 0.1 µM): 97.8 nM | IC50 (second compound 0.316 µM): 107 nM | IC50 (second compound 1 µM): 125 nM | IC50 (second compound 3.16 µM): 114 nM | IC50 (second compound 10 µM): 113 nM | viability, T/C [1]: 93.5% | viability, T/C [2]: 52.1% | viability, T/C [3]: 20.2% | viability, T/C [4]: 17.5% | viability, T/C [5]: 20.1% | viability, T/C [6]: 22% | viability, T/C [7]: 105% | viability, T/C [8]: 48.6% | viability, T/C [9]: 29.4% | viability, T/C [10]: 20.7% | viability, T/C [11]: 18.7% | viability, T/C [12]: 23.3% | viability, T/C [13]: 79.2% | viability, T/C [14]: 51.7% | viability, T/C [15]: 23.6% | viability, T/C [16]: 17.7% | viability, T/C [17]: 18.9% | viability, T/C [18]: 20.8% | viability, T/C [19]: 90.2% | viability, T/C [20]: 54.9% | viability, T/C [21]: 29.8% | viability, T/C [22]: 16.4% | viability, T/C [23]: 21.9% | viability, T/C [24]: 22% | viability, T/C [25]: 83.3% | viability, T/C [26]: 53.4% | viability, T/C [27]: 23.5% | viability, T/C [28]: 17.2% | viability, T/C [29]: 18.5% | viability, T/C [30]: 23% | viability, T/C [31]: 86% | viability, T/C [32]: 51.9% | viability, T/C [33]: 32.1% | viability, T/C [34]: 18.4% | viability, T/C [35]: 22.6% | viability, T/C [36]: 22.8%

CC1COCCN1c1cc(C2(S(C)(=N)=O)CC2)nc(-c2ccnc3[nH]ccc23)n1 (stereo not drawn) + Cc1cccc(N(C)C(=O)C2C(O)CCN2c2nc(C)cc(C(F)(F)F)c2C#N)c1
IC50 (second compound 0.0316 µM): 2890 nM | IC50 (second compound 0.1 µM): 3050 nM | IC50 (second compound 0.316 µM): 2440 nM | IC50 (second compound 1 µM): 2520 nM | IC50 (second compound 3.16 µM): 1570 nM | IC50 (second compound 10 µM): 2000 nM | viability, T/C [1]: 116% | viability, T/C [2]: 91.8% | viability, T/C [3]: 91.4% | viability, T/C [4]: 96.2% | viability, T/C [5]: 46.1% | viability, T/C [6]: 21.4% | viability, T/C [7]: 113% | viability, T/C [8]: 109% | viability, T/C [9]: 86.1% | viability, T/C [10]: 84.5% | viability, T/C [11]: 44.6% | viability, T/C [12]: 20.2% | viability, T/C [13]: 82.6% | viability, T/C [14]: 110% | viability, T/C [15]: 69.1% | viability, T/C [16]: 88.1% | viability, T/C [17]: 38.9% | viability, T/C [18]: 19.9% | viability, T/C [19]: 110% | viability, T/C [20]: 89% | viability, T/C [21]: 97.6% | viability, T/C [22]: 70.1% | viability, T/C [23]: 44.4% | viability, T/C [24]: 21.8% | viability, T/C [25]: 97.7% | viability, T/C [26]: 112% | viability, T/C [27]: 72.3% | viability, T/C [28]: 62.9% | viability, T/C [29]: 36.4% | viability, T/C [30]: 23.5% | viability, T/C [31]: 116% | viability, T/C [32]: 104% | viability, T/C [33]: 117% | viability, T/C [34]: 68% | viability, T/C [35]: 41.2% | viability, T/C [36]: 20.1%

CCc1cc2c(N3CCc4c(cc(Cn5ccnc5)cc4-c4cn(C)nc4C(F)(F)F)C3=O)cc(C)nc2c(OC)n1 + Nc1ccc(C#CCN(C(=O)Cc2ncc(C(F)(F)F)cc2C(F)(F)F)c2ccc(F)cc2)nn1
IC50 (second compound 0.0316 µM): > 10000 nM | IC50 (second compound 0.1 µM): > 10000 nM | IC50 (second compound 0.316 µM): > 10000 nM | IC50 (second compound 1 µM): > 10000 nM | IC50 (second compound 3.16 µM): > 10000 nM | IC50 (second compound 10 µM): > 10000 nM | viability, T/C [1]: 93.5% | viability, T/C [2]: 62% | viability, T/C [3]: 63.9% | viability, T/C [4]: 73.7% | viability, T/C [5]: 74.5% | viability, T/C [6]: 66.7% | viability, T/C [7]: 67.9% | viability, T/C [8]: 66.2% | viability, T/C [9]: 57.1% | viability, T/C [10]: 52.9% | viability, T/C [11]: 70.6% | viability, T/C [12]: 57.8% | viability, T/C [13]: 74.1% | viability, T/C [14]: 65% | viability, T/C [15]: 77.6% | viability, T/C [16]: 60.9% | viability, T/C [17]: 62.3% | viability, T/C [18]: 63.5% | viability, T/C [19]: 89.8% | viability, T/C [20]: 60.6% | viability, T/C [21]: 65% | viability, T/C [22]: 65.5% | viability, T/C [23]: 56.5% | viability, T/C [24]: 49.1% | viability, T/C [25]: 85.2% | viability, T/C [26]: 63.3% | viability, T/C [27]: 62% | viability, T/C [28]: 58.1% | viability, T/C [29]: 72.2% | viability, T/C [30]: 56.6% | viability, T/C [31]: 70.5% | viability, T/C [32]: 75.1% | viability, T/C [33]: 82.3% | viability, T/C [34]: 72.8% | viability, T/C [35]: 66.4% | viability, T/C [36]: 61.1%

COc1ccc([C@@H](O)c2cc(-c3ncnc4cc(N5CCOCC5)ccc34)c(F)cc2Cl)nn1 + Cc1cccc(N(C)C(=O)C2C(O)CCN2c2nc(C)cc(C(F)(F)F)c2C#N)c1
IC50 (second compound 0.0316 µM): 6020 nM | IC50 (second compound 0.1 µM): 4280 nM | IC50 (second compound 0.316 µM): 3200 nM | IC50 (second compound 1 µM): 6410 nM | IC50 (second compound 3.16 µM): 3700 nM | IC50 (second compound 10 µM): 2580 nM | viability, T/C [1]: 79.3% | viability, T/C [2]: 117% | viability, T/C [3]: 76.8% | viability, T/C [4]: 79.1% | viability, T/C [5]: 63.8% | viability, T/C [6]: 39.9% | viability, T/C [7]: 75.3% | viability, T/C [8]: 98.1% | viability, T/C [9]: 69.6% | viability, T/C [10]: 60.3% | viability, T/C [11]: 61.4% | viability, T/C [12]: 34.5% | viability, T/C [13]: 116% | viability, T/C [14]: 98.9% | viability, T/C [15]: 97.6% | viability, T/C [16]: 75.8% | viability, T/C [17]: 48.2% | viability, T/C [18]: 30.3% | viability, T/C [19]: 90.6% | viability, T/C [20]: 80.2% | viability, T/C [21]: 83.4% | viability, T/C [22]: 97.6% | viability, T/C [23]: 72.7% | viability, T/C [24]: 35.8% | viability, T/C [25]: 101% | viability, T/C [26]: 85% | viability, T/C [27]: 81.8% | viability, T/C [28]: 67.2% | viability, T/C [29]: 55% | viability, T/C [30]: 33.1% | viability, T/C [31]: 103% | viability, T/C [32]: 80.8% | viability, T/C [33]: 85.6% | viability, T/C [34]: 59.9% | viability, T/C [35]: 48.9% | viability, T/C [36]: 28.4%
